Experimental data from US20260068888A1, “ALGICIDAL FOAM COMPOSITIONS AND METHODS OF MAKING AND USING THEREOF” (THE ADMINISTRATORS OF THE TULANE EDUCATIONAL FUND, priority 2024, published 2026).

Tested on: Karenia brevis (KB) cells
Test: SYTOX-Green assay of cell-membrane integrity
Format: cell-based
Description: SYTOX-Green Assay. The effects of treatments on the cells were also investigated utilizing the SYTOX-green assay, a technique designed to evaluate cell-membrane integrity. The SYTOX-green dye selectively permeates through compromised cell membranes and produces green-fluorescent color upon interaction with nucleic acid. […] For the assay protocol, a 1.0 ml aliquot of the cell suspension was incubated with 10 μl of the dye solution ([…]) for 15 minutes in the dark, resulting in a final dye concentration of […]. The dye concentration and the incubation time were validated by the heat-treated K. brevis cells for 1 h at 60° C. The cell suspension was then transferred in an optically clear well plate for visualization under an inverted fluorescence microscope (Ex: 465-495 nm; Em: 515 nm, long pass).

[1] = gallic acid 5 mg/mL in the foam stock solution, Tween 80 1.25 mg/mL

## O.O=C(O)c1cc(O)c(O)c(O)c1 [gallic acid, Gallic acid monohydrate]
[1]
  time by which non-viable cells become lysed (loss of green fluorescence): ≤ 6 h
  time to membrane compromised cells (SYTOX-green): ≤ 3 h
Gallic acid in foam, 24 hours
  cell green fluorescence (lysis), SYTOX-green: almost total loss of cell green fluorescence
